From patent US20100292255A1, “Therapeutic Compounds and Their Use in Treating Diseases and Disorders” (Myriad Pharmaceuticals, Inc., priority 2007, published 2010)

system: T1, purified human Hsp90; assay: Hsp90 binding assay: displacement of BODIPY-labeled geldanamycin measured by fluorescence polarization; settings: 5 μM compound; BODIPY-GM 10 nM, Hsp90 30 nM, overnight at room temperature
T1 construct: purified human Hsp90 (Stressgen, SPP-770)
Procedure: Binding of the Example Compounds to purified Hsp90 was assayed by measuring the displacement of BODIPY-labeled geldanamycin (BODIPY-GM) from purified human Hsp90, using a fluorescence polarization assay adapted from Kim et al. (J. Biomolec. Screening, 9(5):375-381 (2004)). Compound dilutions (in 100% DMSO) were added to black-bottom 96-well plates (Greiner Bio-One, Monroe, N.C.) in 2% DMSO final, and equal volumes of BODIPY-GM (10 nM final) and purified human Hsp90 (Stressgen, SPP-770; 30 nM final) (Assay Designs, Ann Arbor, Mich.) in assay buffer (20 mM HEPES-KOH pH 7.3, 50 mM KCl, 5 mM MgCl2, 20 mM Na2MoO4, 0.01% NP-40, 0.1 mg/mL bovine gamma globulin [P2045; Invitrogen, Carlsbad, Calif.], 2 mM DTT) were added sequentially to yield a final volume of 50 microliters. Plates were incubated overnight at room temperature. Parallel and perpendicular fluorescence measurements were read (Analyst AD plate reader; LJL BioSystems, Middletown, Conn.) with excitation/emission wavelengths of 485/530 nm. Background fluorescence (buffer only) was subtracted, and fluorescence polarization (FP) values, expressed in mP units, were calculated from parallel and perpendicular fluorescence readings as follows:
FP=(parallel−perpendicular)/(parallel+perpendicular)*1000.
Percent inhibition was calculated by normalizing the FP values to those obtained in parallel reactions containing DMSO and subtracting these normalized values from 100%. Intrinsic compound fluorescence was independently monitored, and FP data points confounded by compound fluorescence were excluded from the analysis.

Structure (SMILES)	GM displacement from purified Hsp90 measured by FP Inhibition by 5 μM compd. (%)
Nc1ncn(CCC2CCN(C=O)CC2)c2nc(Sc3cc(O)c(O)cc3Br)nc1-2 [Example Compound 146, 4-(2-{6-amino-8-[(2-bromo-4,5-dihydroxyphenyl)thio]-3H-purin-3-yl}ethyl)piperidine-1-carbaldehyde]	87.0
Cc1cc(Br)c(Sc2nc3c(N)ncn(CCC4CCN(C(=O)[C@H](C)O)CC4)c-3n2)cc1C [Example Compound 166, (2S)-1-[4-(2-{6-amino-8-[(2-bromo-4,5-dimethylphenyl)thio]-3H-purin-3-yl}ethyl)piperidin-1-yl]-1-oxopropan-2-ol]	75.0

same assay, conditions: BODIPY-GM 10 nM, Hsp90 30 nM, overnight at room temperature; read-out: GM displacement from purified Hsp90 measured by FP IC 50

Structure (SMILES)	IC50 [nM]
Nc1ncnc2c1nc(Sc1cc(O)c(O)cc1Br)n2CCC1CCN(C=O)CC1 [Example Compound 145, 4-(2-{6-Amino-8-[(2-bromo-4,5-dihydroxyphenyl)thio]-9H-purin-9-yl}ethyl)piperidine-1-carbaldehyde]	600
Nc1ncnc2c1nc(Sc1cc3c(cc1Br)OCO3)n2CCC1CCNCC1 [Example Compound 147, 8-[(6-Bromo-1,3-benzodioxol-5-yl)thio]-9-(2-piperidin-4-ylethyl)-9H-purin-6-amine]	470
Nc1ncnc2c1nc(Sc1cc3c(cc1Br)OCO3)n2CCC1CCN(S(N)(=O)=O)CC1 [Example Compound 148, 4-(2-{6-Amino-8-[(6-bromo-1,3-benzodioxol-5-yl)thio]-9H-purin-9-yl}ethyl)piperidine-1-sulfonamide]	400
Nc1ncnc2c1nc(Sc1cc3c(cc1Br)OCO3)n2CCC1CCN(CCO)CC1 [Example Compound 149, 2-[4-(2-{6-Amino-8-[(6-bromo-1,3-benzodioxol-5-yl)thio]-9H-purin-9-yl}ethyl)piperidin-1-yl]ethanol]	450
Nc1ncnc2c1nc(Sc1cc3c(cc1Br)OCO3)n2CCC1CCN(CCCO)CC1 [Example Compound 150, 3-[4-(2-{6-Amino-8-[(6-bromo-1,3-benzodioxol-5-yl)thio]-9H-purin-9-yl}ethyl)piperidin-1-yl]propan-1-ol]	600
NC(=O)C[C@H](N)C(=O)N1CCC(CCn2c(Sc3cc4c(cc3Br)OCCO4)nc3c(N)ncnc32)CC1 [Example Compound 151, (3S)-3-Amino-4-[4-(2-{6-amino-8-[(7-bromo-2,3-dihydro-1,4-benzodioxin-6-yl)thio]-9H-purin-9-yl}ethyl)piperidin-1-yl]-4-oxobutanamide]	57
NC(=O)C[C@H](N)C(=O)N1CCC(CCn2c(Sc3cc4c(cc3Br)OCO4)nc3c(N)ncnc32)CC1 [Example Compound 152, (3S)-3-Amino-4-[4-(2-{6-amino-8-[(6-bromo-1,3-benzodioxol-5-yl)thio]-9H-purin-9-yl}ethyl)piperidin-1-yl]-4-oxobutanamide]	114
NC(=O)CCC(=O)N1CCC(CCn2c(Sc3cc4c(cc3Br)OCCO4)nc3c(N)ncnc32)CC1 [Example Compound 153, 4-[4-(2-{6-Amino-8-[(7-bromo-2,3-dihydro-1,4-benzodioxin-6-yl)thio]-9H-purin-9-yl}ethyl)piperidin-1-yl]-4-oxobutanamide]	175
Nc1ncnc2c1nc(Sc1cc3c(cc1Br)OCCO3)n2CCC1CCN(C2=NC(=O)CC2)CC1 [Example Compound 154, 5-[4-(2-{6-amino-8-[(7-bromo-2,3-dihydro-1,4-benzodioxin-6-yl)thio]-9H-purin-9-yl}ethyl)piperidin-1-yl]-3,4-dihydro-2H-pyrrol-2-one]	105
NC(=O)CCC(=O)N1CCC(CCn2c(Sc3cc4c(cc3Br)OCO4)nc3c(N)ncnc32)CC1 [Example Compound 155, 4-[4-(2-{6-Amino-8-[(6-bromo-1,3-benzodioxol-5-yl)thio]-9H-purin-9-yl}ethyl)piperidin-1-yl]-4-oxobutanamide]	300
Nc1ncnc2c1nc(Sc1cc3c(cc1Br)OCO3)n2CCC1CCN(C2=NC(=O)CC2)CC1 [Example Compound 156, 5-[4-(2-{6-amino-8-[(6-bromo-1,3-benzodioxol-5-yl)thio]-9H-purin-9-yl}ethyl)piperidin-1-yl]-3,4-dihydro-2H-pyrrol-2-one]	160
CS(=O)(=O)NCC(=O)N1CCC(CCn2c(Sc3cc4c(cc3Br)OCCO4)nc3c(N)ncnc32)CC1 [Example Compound 157, N-{2-[4-(2-{6-Amino-8-[(7-bromo-2,3-dihydro-1,4-benzodioxin-6-yl)thio]-9H-purin-9-yl}ethyl)piperidin-1-yl]-2-oxoethyl}methanesulfonamide]	195
CS(=O)(=O)NCC(=O)N1CCC(CCn2c(Sc3cc4c(cc3Br)OCO4)nc3c(N)ncnc32)CC1 [Example Compound 158, N-{2-[4-(2-{6-Amino-8-[(6-bromo-1,3-benzodioxol-5-yl)thio]-9H-purin-9-yl}ethyl)piperidin-1-yl]-2-oxoethyl}methanesulfonamide]	360
CC(=O)NCC(=O)N1CCC(CCn2c(Sc3cc4c(cc3Br)OCCO4)nc3c(N)ncnc32)CC1 [Example Compound 159, N-{2-[4-(2-{6-Amino-8-[(7-bromo-2,3-dihydro-1,4-benzodioxin-6-yl)thio]-9H-purin-9-yl}ethyl)piperidin-1-yl]-2-oxoethyl}acetamide]	150
CC(=O)N[C@@H](C)C(=O)N1CCC(CCn2c(Sc3cc4c(cc3Br)OCCO4)nc3c(N)ncnc32)CC1 [Example Compound 160, N-{(1S)-2-[4-(2-{6-Amino-8-[(7-bromo-2,3-dihydro-1,4-benzodioxin-6-yl)thio]-9H-purin-9-yl}ethyl)piperidin-1-yl]-1-methyl-2-oxoethyl}acetamide]	200
CC(=O)N[C@H](C)C(=O)N1CCC(CCn2c(Sc3cc4c(cc3Br)OCCO4)nc3c(N)ncnc32)CC1 [Example Compound 161, N-{(1R)-2-[4-(2-{6-Amino-8-[(7-bromo-2,3-dihydro-1,4-benzodioxin-6-yl)thio]-9H-purin-9-yl}ethyl)piperidin-1-yl]-1-methyl-2-oxoethyl}acetamide]	140
Nc1ncnc2c1nc(Sc1cc3c(cc1Br)OCCO3)n2CCC1CCN(C(=O)CS)CC1 [Example Compound 162, 2-[4-(2-{6-Amino-8-[(7-bromo-2,3-dihydro-1,4-benzodioxin-6-yl)thio]-9H-purin-9-yl}ethyl)piperidin-1-yl]-2-oxoethanethiol]	60
C[C@H](O)C(=O)N1CCC(CCn2c(Sc3cc4c(cc3Br)CCCC4)nc3c(N)ncnc32)CC1 [Example Compound 163, (2S)-1-[4-(2-{6-amino-8-[(3-bromo-5,6,7,8-tetrahydronaphthalen-2-yl)thio]-9H-purin-9-yl}ethyl)piperidin-1-yl]-1-oxopropan-2-ol]	205
Cc1cc(Br)c(Sc2nc3c(N)ncnc3n2CCC2CCN(C(=O)[C@H](C)O)CC2)cc1C [Example Compound 165, (2S)-1-[4-(2-{6-amino-8-[(2-bromo-4,5-dimethylphenyl)thio]-9H-purin-9-yl}ethyl)piperidin-1-yl]-1-oxopropan-2-ol]	240
Nc1ncnc2c1nc(Sc1cc3c(cc1Br)CCO3)n2CCC1CCN(C=O)CC1 [Example Compound 167, 4-(2-{6-Amino-8-[(5-bromo-2,3-dihydro-1-benzofuran-6-yl)thio]-9H-purin-9-yl}ethyl)piperidine-1-carbaldehyde]	42
